How the values were obtained:
S. aureus DSM 20231 [1] = test: Bliss interaction score (quartile over a dose matrix) (fitness difference); higher = more antagonism (negative = synergy)
In short: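 Fitness was defined as normalised growth: OD595 at the start of stationary phase divided by the plate's robust no-drug mean and capped at 1. Single-drug fitness was inferred from combination measurements. The Bliss score is observed fitness minus the product of the single-drug values, summarised by quartiles across technical, biological and donor/recipient replicates.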

B. subtilis 168 = test: fitness (endpoint OD595 vs no drug) (fraction); higher = more growth
In short: (§1)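 In 384-well plates at 37 °C, cultures began at OD595 0.01 in 30 µl, with 55 µl used for S. pneumoniae. OD595 readings every 30 min for 14 h were corrected by the first reading. Fitness divides the stationary-phase transition optical density by the robust mean of no-drug control wells. The result is capped at 1.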

S. aureus DSM 20231 [2] = test: as above
In short: as §1

S. aureus Newman = test: as above
In short: as §1

S. pneumoniae D39V = test: as above
In short: as §1

[3] = first compound 0.125 µg/mL, partner 0.0156 µg/mL
[4] = first compound 0.125 µg/mL, partner 0.0312 µg/mL
[5] = first compound 0.125 µg/mL, partner 0.0625 µg/mL
[6] = first compound 0.25 µg/mL, partner 0.0156 µg/mL
[7] = first compound 0.25 µg/mL, partner 0.0312 µg/mL
[8] = first compound 0.25 µg/mL, partner 0.0625 µg/mL
[9] = first compound 0.5 µg/mL, partner 0.0156 µg/mL
[10] = first compound 0.5 µg/mL, partner 0.0312 µg/mL
[11] = first compound 0.5 µg/mL, partner 0.0625 µg/mL
[12] = first compound 0.125 µg/mL, partner 0.375 µg/mL
[13] = first compound 0.125 µg/mL, partner 0.75 µg/mL
[14] = first compound 0.125 µg/mL, partner 1.5 µg/mL
[15] = first compound 0.25 µg/mL, partner 0.375 µg/mL
[16] = first compound 0.25 µg/mL, partner 0.75 µg/mL
[17] = first compound 0.25 µg/mL, partner 1.5 µg/mL
[18] = first compound 0.5 µg/mL, partner 1.5 µg/mL
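Throughout, for Bliss interaction score (quartile over a dose matrix): first quartile when negative (synergy) and third quartile when positive (antagonism).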
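Throughout, for fitness (endpoint OD595 vs no drug): OD595 on entry to stationary phase over no-drug wells; at most 1.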

SMILES: CC[C@H]1OC(=O)[C@H](C)[C@@H](O[C@H]2C[C@@](C)(OC)[C@@H](O)[C@H](C)O2)[C@H](C)[C@@H](O[C@@H]2O[C@H](C)C[C@H](N(C)C)[C@H]2O)[C@](C)(O)C[C@@H](C)CN(C)[C@H](C)[C@@H](O)[C@]1(C)O [Azithromycin] + CN1CCN(C2=Nc3ccccc3Oc3ccc(Cl)cc32)CC1 [Loxapine]
- Bliss interaction score (S. aureus DSM 20231 [1]): -0.147

SMILES: CC[C@H]1OC(=O)[C@H](C)[C@@H](O[C@H]2C[C@@](C)(OC)[C@@H](O)[C@H](C)O2)[C@H](C)[C@@H](O[C@@H]2O[C@H](C)C[C@H](N(C)C)[C@H]2O)[C@](C)(O)C[C@@H](C)CN(C)[C@H](C)[C@@H](O)[C@]1(C)O [Azithromycin] + CN(C)[C@@H]1C(O)=C(C(N)=O)C(=O)[C@@]2(O)C(O)=C3C(=O)c4c(O)ccc(Cl)c4[C@@](C)(O)[C@H]3C[C@@H]12 [Chlortetracycline]
- fitness (B. subtilis 168; first compound 0.25 µg/mL, partner 0.0475 µg/mL): 0.824
- fitness (B. subtilis 168; first compound 2 µg/mL, partner 0.0475 µg/mL, one replicate): 0.0292
- fitness (B. subtilis 168; first compound 2 µg/mL, partner 0.095 µg/mL, one replicate): 0.0192
- fitness (B. subtilis 168; first compound 2 µg/mL, partner 0.19 µg/mL, one replicate): 0.025
- fitness (S. aureus DSM 20231 [2]; first compound 0.125 µg/mL, partner 0.006 µg/mL, one replicate): 0.629
- fitness (S. aureus DSM 20231 [2]; first compound 0.125 µg/mL, partner 0.024 µg/mL): 0.112
- fitness (S. aureus DSM 20231 [2]; first compound 0.125 µg/mL, partner 0.048 µg/mL): 0.0779
- fitness (S. aureus DSM 20231 [2]; first compound 0.25 µg/mL, partner 0.006 µg/mL, one replicate): 0.46
- fitness (S. aureus DSM 20231 [2]; first compound 0.25 µg/mL, partner 0.024 µg/mL): 0.0335
- fitness (S. aureus DSM 20231 [2]; first compound 0.25 µg/mL, partner 0.048 µg/mL): 0.0451
- fitness (S. aureus DSM 20231 [2]; first compound 0.5 µg/mL, partner 0.006 µg/mL, one replicate): 0.0187
- fitness (S. aureus DSM 20231 [2]; first compound 0.5 µg/mL, partner 0.012 µg/mL): 0.0274
- fitness (S. aureus DSM 20231 [2]; first compound 0.5 µg/mL, partner 0.024 µg/mL): 0.0241
- fitness (S. aureus DSM 20231 [2]; first compound 0.5 µg/mL, partner 0.048 µg/mL): 0.0364

SMILES: CC[C@H]1OC(=O)[C@H](C)[C@@H](O[C@H]2C[C@@](C)(OC)[C@@H](O)[C@H](C)O2)[C@H](C)[C@@H](O[C@@H]2O[C@H](C)C[C@H](N(C)C)[C@H]2O)[C@](C)(O)C[C@@H](C)CN(C)[C@H](C)[C@@H](O)[C@]1(C)O [Azithromycin] + CO[C@@]12[C@H](COC(N)=O)C3=C(C(=O)C(C)=C(N)C3=O)N1C[C@@H]1N[C@@H]12 [Mitomycin C]
- fitness (S. aureus Newman; [3]): 0.719
- fitness (S. aureus Newman; [4]): 0.671
- fitness (S. aureus Newman; [5]): 0.559
- fitness (S. aureus Newman; [6]): 0.726
- fitness (S. aureus Newman; [7]): 0.638
- fitness (S. aureus Newman; [8]): 0.551
- fitness (S. aureus Newman; [9]): 0.561
- fitness (S. aureus Newman; [10]): 0.53
- fitness (S. aureus Newman; [11]): 0.365
- fitness (S. aureus DSM 20231 [2]; [3]): 0.674
- fitness (S. aureus DSM 20231 [2]; [4]): 0.661
- fitness (S. aureus DSM 20231 [2]; [5]): 0.547
- fitness (S. aureus DSM 20231 [2]; [6]): 0.701
- fitness (S. aureus DSM 20231 [2]; [7]): 0.664
- fitness (S. aureus DSM 20231 [2]; [8]): 0.491
- fitness (S. aureus DSM 20231 [2]; [9]): 0.366
- fitness (S. aureus DSM 20231 [2]; [10]): 0.314
- fitness (S. aureus DSM 20231 [2]; [11]): 0.171

SMILES: CC[C@H]1OC(=O)[C@H](C)[C@@H](O[C@H]2C[C@@](C)(OC)[C@@H](O)[C@H](C)O2)[C@H](C)[C@@H](O[C@@H]2O[C@H](C)C[C@H](N(C)C)[C@H]2O)[C@](C)(O)C[C@@H](C)CN(C)[C@H](C)[C@@H](O)[C@]1(C)O [Azithromycin] + Cc1c(Cl)cccc1Nc1ccccc1C(=O)O [Tolfenamic]
- Bliss interaction score (S. aureus DSM 20231 [1]): -0.292

SMILES: CC[C@H]1OC(=O)[C@H](C)[C@@H](O[C@H]2C[C@@](C)(OC)[C@@H](O)[C@H](C)O2)[C@H](C)[C@@H](O[C@@H]2O[C@H](C)C[C@H](N(C)C)[C@H]2O)[C@](C)(O)C[C@@H](C)CN(C)[C@H](C)[C@@H](O)[C@]1(C)O [Azithromycin] + N[C@@H]1CONC1=O [Cycloserine D]
- fitness (S. aureus Newman; [12]): 0.887
- fitness (S. aureus Newman; [13]): 0.906
- fitness (S. aureus Newman; [14]): 0.898
- fitness (S. aureus Newman; [15]): 0.868
- fitness (S. aureus Newman; [16]): 0.908
- fitness (S. aureus Newman; [17]): 0.905
- fitness (S. aureus Newman; first compound 0.5 µg/mL, partner 0.375 µg/mL): 0.674
- fitness (S. aureus Newman; [18]): 0.665
- fitness (B. subtilis 168; first compound 0.25 µg/mL, partner 0.125 µg/mL): 0.946
- fitness (B. subtilis 168; first compound 0.25 µg/mL, partner 0.25 µg/mL): 0.918
- fitness (B. subtilis 168; first compound 0.25 µg/mL, partner 0.5 µg/mL): 0.892
- fitness (B. subtilis 168; first compound 0.5 µg/mL, partner 0.125 µg/mL): 0.884
- fitness (B. subtilis 168; first compound 0.5 µg/mL, partner 0.25 µg/mL): 0.854
- fitness (B. subtilis 168; first compound 0.5 µg/mL, partner 0.5 µg/mL): 0.826
- fitness (B. subtilis 168; first compound 2 µg/mL, partner 0.125 µg/mL, one replicate): 0.348
- fitness (B. subtilis 168; first compound 2 µg/mL, partner 0.25 µg/mL, one replicate): 0.0742
- fitness (B. subtilis 168; first compound 2 µg/mL, partner 0.5 µg/mL, one replicate): 0.066
- fitness (S. aureus DSM 20231 [2]; [12]): 0.935
- fitness (S. aureus DSM 20231 [2]; [13]): 0.887
- fitness (S. aureus DSM 20231 [2]; [14]): 0.948
- fitness (S. aureus DSM 20231 [2]; [15]): 0.881
- fitness (S. aureus DSM 20231 [2]; [16]): 0.869
- fitness (S. aureus DSM 20231 [2]; [17]): 0.881

SMILES: CC[C@H]1OC(=O)[C@H](C)[C@@H](O[C@H]2C[C@@](C)(OC)[C@@H](O)[C@H](C)O2)[C@H](C)[C@@H](O[C@@H]2O[C@H](C)C[C@H](N(C)C)[C@H]2O)[C@](C)(O)C[C@@H](C)CN(C)[C@H](C)[C@@H](O)[C@]1(C)O [Azithromycin] + O=C(O)c1cc(-c2ccc(F)cc2F)ccc1O [Diflunisal]
- Bliss interaction score (S. aureus DSM 20231 [1]): -0.146

SMILES: CN(C)CCCN1c2ccccc2Sc2ccc(Cl)cc21 [Chlorpromazine] + CC(=O)NC[C@H]1CN(c2ccc(N3CCOCC3)c(F)c2)C(=O)O1 [Linezolid]
- Bliss interaction score (S. aureus DSM 20231 [1]): -0.236

SMILES: CN(C)CCCN1c2ccccc2Sc2ccc(Cl)cc21 [Chlorpromazine] + CCC[C@@H]1C[C@@H](C(=O)N[C@@H]([C@H]2O[C@H](SC)[C@H](O)[C@@H](O)[C@H]2O)[C@@H](C)O)N(C)C1 [Lincomycin]
- Bliss interaction score (S. aureus DSM 20231 [1]): -0.233

SMILES: CN(C)CCCN1c2ccccc2Sc2ccc(Cl)cc21 [Chlorpromazine] + CN(C)C(=O)C(CCN1CCC(O)(c2ccc(Cl)cc2)CC1)(c1ccccc1)c1ccccc1 [Loperamide]
- Bliss interaction score (S. aureus DSM 20231 [1]): -0.311

SMILES: CN(C)CCCN1c2ccccc2Sc2ccc(Cl)cc21 [Chlorpromazine] + CN[C@H](CC(C)C)C(=O)N[C@H]1C(=O)N[C@@H](CC(N)=O)C(=O)N[C@H]2C(=O)N[C@H]3C(=O)N[C@H](C(=O)N[C@H](C(=O)O)c4cc(O)cc(O)c4-c4cc3ccc4O)[C@H](O[C@H]3C[C@](C)(N)[C@@H](O)[C@H](C)O3)c3ccc(c(Cl)c3)Oc3cc2cc(c3O[C@@H]2O[C@H](CO)[C@@H](O)[C@H](O)[C@H]2O[C@H]2C[C@](C)(NCc3ccc(-c4ccc(Cl)cc4)cc3)[C@@H](O)[C@H](C)O2)Oc2ccc(cc2Cl)[C@H]1O [Oritavancin]
- Bliss interaction score (S. aureus DSM 20231 [1]): -0.202

SMILES: CN(C)CCCN1c2ccccc2Sc2ccc(Cl)cc21 [Chlorpromazine] + C[C@H]1c2cccc(O)c2C(=O)C2=C(O)[C@]3(O)C(=O)C(C(N)=O)=C(O)[C@@H](N(C)C)[C@@H]3[C@@H](O)[C@@H]21 [Doxycycline]
- Bliss interaction score (S. aureus DSM 20231 [1]): -0.263

SMILES: O=C(O)[C@H]1/C(=C/CO)O[C@@H]2CC(=O)N21 [Clavulanic acid] + C[n+]1ccc(-c2cc[n+](C)cc2)cc1 [Paraquat]
- fitness (S. aureus Newman; first compound 0.03125 µg/mL, partner 1.25 µg/mL, one replicate): 0.952
- fitness (S. aureus Newman; first compound 0.03125 µg/mL, partner 2.5 µg/mL, one replicate): 0.98
- fitness (S. aureus Newman; first compound 0.03125 µg/mL, partner 5 µg/mL, one replicate): 0.99
- fitness (S. aureus Newman; first compound 0.0625 µg/mL, partner 1.25 µg/mL, one replicate): 0.99
- fitness (S. aureus Newman; first compound 0.0625 µg/mL, partner 2.5 µg/mL, one replicate): 0.983
- fitness (S. aureus Newman; first compound 0.0625 µg/mL, partner 5 µg/mL, one replicate): ≥ 1
- fitness (S. aureus Newman; first compound 0.125 µg/mL, partner 1.25 µg/mL, one replicate): 0.843
- fitness (S. aureus Newman; first compound 0.125 µg/mL, partner 2.5 µg/mL, one replicate): 0.943
- fitness (S. aureus Newman; first compound 0.125 µg/mL, partner 5 µg/mL, one replicate): 0.89
- fitness (B. subtilis 168; first compound 1.5 µg/mL, partner 1.25 µg/mL): 0.93
- fitness (B. subtilis 168; first compound 1.5 µg/mL, partner 2.5 µg/mL): 0.96
- fitness (B. subtilis 168; first compound 1.5 µg/mL, partner 5 µg/mL): 0.835
- fitness (B. subtilis 168; first compound 3 µg/mL, partner 1.25 µg/mL): 0.87
- fitness (B. subtilis 168; first compound 3 µg/mL, partner 2.5 µg/mL): 0.812
- fitness (B. subtilis 168; first compound 3 µg/mL, partner 5 µg/mL): 0.77
- fitness (B. subtilis 168; first compound 6 µg/mL, partner 1.25 µg/mL): 0.773
- fitness (B. subtilis 168; first compound 6 µg/mL, partner 2.5 µg/mL): 0.728
- fitness (B. subtilis 168; first compound 6 µg/mL, partner 5 µg/mL): 0.672
- fitness (S. pneumoniae D39V; [18]): 0.99
- fitness (S. pneumoniae D39V; first compound 0.5 µg/mL, partner 3 µg/mL): ≥ 1
- fitness (S. pneumoniae D39V; first compound 0.5 µg/mL, partner 6 µg/mL): 0.991
- fitness (S. pneumoniae D39V; first compound 1 µg/mL, partner 1.5 µg/mL): 0.973
- fitness (S. pneumoniae D39V; first compound 1 µg/mL, partner 3 µg/mL): 0.962
- fitness (S. pneumoniae D39V; first compound 1 µg/mL, partner 6 µg/mL): 0.941
- fitness (S. pneumoniae D39V; first compound 2 µg/mL, partner 1.5 µg/mL): 0.875
- fitness (S. pneumoniae D39V; first compound 2 µg/mL, partner 3 µg/mL): 0.896
- fitness (S. pneumoniae D39V; first compound 2 µg/mL, partner 6 µg/mL): 0.863
